Measurements taken from patent US20030235577A1, “Methods and compositions for preventing and treating microbial infections” (priority 2002, published 2003).

Assays:
S aureus = experiment: Dose response of S. aureus to MMP-12 C-terminal peptides; type: cell-based, Staphylococcus aureus; settings: various concentrations of peptide, 100 minutes
Description: Dose response: samples of S aureus were incubated with various concentrations of murine peptide (SEQ ID NO: 37), human peptide (SEQ ID NO: 36) and Human SNP peptide (SEQ ID NO:55). The human SNP peptide (SEQ ID NO:55) has a single nucleotide change from the sequence of SEQ ID NO 36. The peptide SEQ ID NO:36 has the amino acid sequence: […] and the peptide SEQ ID NO:55 has the amino acid sequence […]. The amount of bacteria remaining at various the various concentrations was determined for each group of a 100 minute time course.

S. aureus [1] = experiment: Peritonitis model, peptide injected intraperitoneally after S. aureus; type: in vivo, C57/B16 mice; settings: 72 hour time point, peptide 1 mg intraperitoneally; for survival: S. aureus 6×10^7 CFU
Description: Bacterial preparation: Staphylococcus aureus a clinical isolate was grown in tryptic soy broth for 18 hours at 37° C. An aliquot was placed in fresh media and grown until mid-log phase of growth. S. aureus was centrifuged and washed in sterile PBS and diluted. Bacteria concentration of O.D.540 of 0.9, corresponding to a concentration of 6×10^7 CFU/ml was used for inoculation.
Peptide preparation: Murine MMP-12 C-terminal peptide […] (SEQ ID NO:37; 333-352) and Human MMP-12 C-terminal peptide […] (SEQ ID NO:36; 341-359) and a human MMP-12 peptide with a single nucleotide polymorphism: […] (SEQ ID NO:55) were solubilized in sterile H2O at a concentration of 4 mg/ml.
Peritonitis model: C57/B16 mice received intraperitoneal injection of bacteria in a total volume of 1 ml (6×10^7 CFU). Peptides were intraperitoneally injected immediately after at a dose of 1 mg. […] The control mice received the same intraperitoneal injection of bacteria as in the test groups and then received an injection of vehicle with no peptide.

S. aureus [2] = experiment: In vitro antimicrobial activity, co-incubation with S. aureus in 5% LB and CFU count; type: cell-based, Staphylococcus aureus; settings: S. aureus, 5% LB culture, similar doses and conditions as full-length MMP-12
Description: S. aureus co-culture was incubated for 60 minutes with doses of MMP-12 C-terminal. Aliquots of cultures were diluted in PBS at 1:10 and 1:100 dilution. Dilutions were plated on LB agar plates for 18 hour incubation at 37° C. Controls consisted of column fractions that lacked MMP-12 carboxy terminal determined by immunoblotting.
MMP-12's mechanism of action as a host defense protein was investigated. To test for direct activity, functional full-length recombinant human MMP-12 was incubated with S. aureus in a 5% LB culture. […] MMP-12 enzymatic activity was not required for this antimicrobial effect.
Mid-log phase bacteria (10^5) were incubated in the absence or presence of purified MMP-12 C-terminal in a total volume of 100 μl of 10 mmol/L sodium phosphate containing 5% (vol/vol) TSB at 37° C. for 1 hour. Serial dilutions were then spread on agarose plates and the number of CFUs were determined after overnight incubation.

S. aureus [3] = experiment: Propidium iodide exclusion assay with fluorescence microscopy; type: cell-based, Staphylococcus aureus; settings: 20 μg/ml, 30 minutes
Description: Recombinant segments of MMP-12 C-terminal were generated each covering one third of the C-terminal. Segments were then tested for anti-microbial activity against S. aureus. […] We hypothesized that in this region there was a secondary structure that had potential antimicrobial structure and properties consistent with the structure in cathelicidins. A predicted amphipathic and alpha helical structure was found in this region, which was conserved in the MMP-12 C-terminal domains from rabbit, rat, mouse and human. […] These studies have been repeated n>10 with similar results. FIG. 10 illustrates thae effect of MMP-12 C-terminal domain on cell survival.

In the case of “ARNQVFLFKDDKYWLISNLR (listed as Homo sapiens) [Human MMP-12 peptide]”, the “amount of S. aureus remaining” value (S aureus) is reported as “zero S. aureus at most concentrations”, the “activity (clinical observation)” value (S. aureus [1]) is reported as “normal activity” and the survival (S. aureus [1]) is reported as 100%.

For “ARNQVFLFKDDKYWLISSLR (listed as Homo sapiens) [Human SNP]”, the “amount of S. aureus remaining” value (S aureus) was “zero S aureus at all concentrations”.

For “MMP-3: commercially available full length pro-MMP 3 [reference compound]”, the direct antimicrobial activity (S. aureus [2]) was “did not demonstrate this direct antimicrobial activity”.

For “MMP-7: commercially available full length pro-MMP 7 [reference compound]”, the direct antimicrobial activity (S. aureus [2]) was “did not demonstrate this direct antimicrobial activity”.

“MMP-8: commercially available full length pro-MMP 8 [reference compound]” was tested, and the direct antimicrobial activity (S. aureus [2]) was “did not demonstrate this direct antimicrobial activity”.

In the case of “SRDLMFIFRGRKFWALNGYD [MMP-13 peptide, reference compound]”, the “bacterial death, uptake of membrane impermeant dye” value (S. aureus [3]) is reported as “little dye uptake”.

In the case of “SRNQLFLFKDEKYWLINNLV (listed as Mus musculus) [Murine MMP-12 peptide]”, the “bacterial death, uptake of membrane impermeant dye” value (S. aureus [3]) is reported as “clumping and increased uptake of membrane impermeant dye”, the “amount of S. aureus remaining” value (S aureus) is reported as “higher at each concentration” and the “activity (clinical observation)” value (S. aureus [1]) is reported as “decrease activity”. The survival (S. aureus [1]) was 75%.
